# Values of other authors, collected in PubChem BioAssay AID1259409 (Chemical Carcinogenesis Research Information System (CCRIS), 2018).
# Tested on: rodent chemically induced tumor inhibition, incidence and multiplicity
# Test: CCRIS tumor inhibitor studies
# Conditions: for tumour outcome (control, treated, inhibition, significance): Species: RAT
smiles,measurement,setting,value
C=CCSSCC=C,"tumour outcome (control, treated, inhibition, significance)","Carcinogen: 2-AMINO-1-METHYL-6-PHENYLIMIDAZO[4,5-B]PYRIDINE [105650-23-5], Dose [Inhibitor]: 200 PPM IN DIET FOR 4 WK BEGINNING WK PRIOR TO FIRST CARCINOGEN DOSE (STUDY DURATION: 25 WK), Route [Inhibitor]: ORAL, Strain/Sex: SPRAGUE-DAWLEY/FEMALE, Target Tissue: Type of Lesion: MAMMARY GLAND: FIBROADENOMA OR DUCTAL CARCINOMA, Dose [Carcinogen]: 85 MG/KG BW 2X/WK FOR 4 WK (STUDY DURATION: 25 WK), Promoter: NONE","68%, 52%, 24%, not significant"
same,"tumour outcome (control, treated, inhibition, significance)","Carcinogen: 2-AMINO-1-METHYL-6-PHENYLIMIDAZO[4,5-B]PYRIDINE, 105650-23-5, Dose [Inhibitor]: 0, 200 PPM IN HIGH FAT DIET FOR 4 WK BEGINNING 1 WK PRIOR TO CARCINOGEN TREATMENT (STUDY DURATION: 25 WK), Route [Inhibitor]: ORAL, Strain/Sex: SPRAGUE-DAWLEY/FEMALE, Target Tissue: Type of Lesion: MAMMARY GLAND: CARCINOMA, Dose [Carcinogen]: 85 MG/KG BW IN CORN OIL 8 TIMES IN 10 D, Promoter: NONE USED","21/31 (68%), 16/31 (52%), 24%, not calculated"
same,"tumour outcome (control, treated, inhibition, significance)","Carcinogen: 2-AMINO-1-METHYL-6-PHENYLIMIDAZO[4,5-B]PYRIDINE, 105650-23-5, Dose [Inhibitor]: 0, 200 PPM IN HIGH FAT DIET FOR 4 WK BEGINNING 1 WK PRIOR TO CARCINOGEN TREATMENT (STUDY DURATION: 25 WK), Route [Inhibitor]: ORAL, Strain/Sex: SPRAGUE-DAWLEY/FEMALE, Target Tissue: Type of Lesion: MAMMARY GLAND: FIBROADENOMA, Dose [Carcinogen]: 85 MG/KG BW IN CORN OIL 8 TIMES IN 10 D, Promoter: NONE USED","3/31 (10%), 0/31 (0%), 100%, not calculated"
same,"tumour outcome (control, treated, inhibition, significance)","Carcinogen: 7,12-DIMETHYLBENZ[A]ANTHRACENE, 57-97-6, Dose [Inhibitor]: 0, 1.8 MMOL/KG BW IN CORN OIL 96, 48 AND 24 HR PRIOR TO CARCINOGEN TREATMENT (STUDY DURATION: 25 WK), Route [Inhibitor]: GAVAGE, Strain/Sex: SPRAGUE-DAWLEY/FEMALE, Target Tissue: Type of Lesion: MAMMARY GLAND: ADENOCARCINOMA, Dose [Carcinogen]: 10 MG ONCE, Promoter: NONE USED","92%, 36%, 61%, p<0.05"
same,"tumour outcome (control, treated, inhibition, significance)","Carcinogen: AZOXYMETHANE, 25843-45-2, Dose [Inhibitor]: 0, 100 PPM IN DIET BEGINNING 2 WK PRIOR TO CARCINOGEN TREATMENT AND CONTINUING FOR DURATION OF STUDY (STUDY DURATION: 56, Route [Inhibitor]: ORAL, Strain/Sex: F344/MALE, Target Tissue: Type of Lesion: COLON: INVASIVE ADENOCARCINOMA, Dose [Carcinogen]: 15 MG/KG 1/WK FOR 2 WK, Promoter: NONE USED","34%, 11%, 68%, p<0.05"
same,"tumour outcome (control, treated, inhibition, significance)","Carcinogen: AZOXYMETHANE, 25843-45-2, Dose [Inhibitor]: 0, 100 PPM IN DIET BEGINNING 2 WK PRIOR TO CARCINOGEN TREATMENT AND CONTINUING FOR DURATION OF STUDY (STUDY DURATION: 56, Route [Inhibitor]: ORAL, Strain/Sex: F344/MALE, Target Tissue: Type of Lesion: COLON: NONINVASIVE ADENOCARCINOMA, Dose [Carcinogen]: 15 MG/KG 1/WK FOR 2 WK, Promoter: NONE USED","53%, 53%, 0%, not significant"
same,"tumour outcome (control, treated, inhibition, significance)","Carcinogen: AZOXYMETHANE, 25843-45-2, Dose [Inhibitor]: 0, 200 PPM IN DIET BEGINNING 2 WK PRIOR TO CARCINOGEN TREATMENT AND CONTINUING FOR DURATION OF STUDY (STUDY DURATION: 56, Route [Inhibitor]: ORAL, Strain/Sex: F344/MALE, Target Tissue: Type of Lesion: COLON: INVASIVE ADENOCARCINOMA, Dose [Carcinogen]: 15 MG/KG 1/WK FOR 2 WK, Promoter: NONE USED","34%, 6%, 82%, p<0.01"
same,"tumour outcome (control, treated, inhibition, significance)","Carcinogen: AZOXYMETHANE, 25843-45-2, Dose [Inhibitor]: 0, 200 PPM IN DIET BEGINNING 2 WK PRIOR TO CARCINOGEN TREATMENT AND CONTINUING FOR DURATION OF STUDY (STUDY DURATION: 56, Route [Inhibitor]: ORAL, Strain/Sex: F344/MALE, Target Tissue: Type of Lesion: COLON: NONINVASIVE ADENOCARCINOMA, Dose [Carcinogen]: 15 MG/KG 1/WK FOR 2 WK, Promoter: NONE USED","53%, 58%, -9%, not significant"
same,"tumour outcome (control, treated, inhibition, significance)","Carcinogen: DIETHYLNITROSAMINE, 55-18-5, N-METHYL-N-NITROSOUREA, 684-93-5, N,N'-DIMETHYLHYDRAZINE, 540-73-8, N-BUTYL-N-(4-HYDR, Carcinogen: DIETHYLNITROSAMINE, 55-18-5, N-METHYL-N-NITROSOUREA, 684-93-5, N,N'-DIMETHYLHYDRAZINE, 540-73-8, N-BUTYL-N-(4-HYDR, Dose [Inhibitor]: 0, 50 MG/KG BW IN CORN OIL 3/WK FOR 6 WK BEGINNING POST CARCINOGEN TREATMENT (STUDY DURATION: 28 WK), Route [Inhibitor]: GAVAGE, Strain/Sex: F344/MALE, Target Tissue: Type of Lesion: KIDNEY: RENAL CELL ADENOMA, Dose [Carcinogen]: 100 MG/KG BW DEN ONCE, 20 MG/KG BW MNU ONCE ON D 2, 5, 8 AND 11, 40 MG/KG BW DMH ON D 14, 17, 20 AND 23, 0.05% BHBN I, Dose [Carcinogen]: 100 MG/KG BW DEN ONCE, 20 MG/KG BW MNU ONCE ON D 2, 5, 8 AND 11, 40 MG/KG BW DMH ON D 14, 17, 20 AND 23, 0.05% BHBN I, Promoter: NONE USED","4/20 (20%), 0/19 (0%), 100%, not calculated"
same,"tumour outcome (control, treated, inhibition, significance)","Carcinogen: DIETHYLNITROSAMINE, 55-18-5, N-METHYL-N-NITROSOUREA, 684-93-5, N,N'-DIMETHYLHYDRAZINE, 540-73-8, N-BUTYL-N-(4-HYDR, Carcinogen: DIETHYLNITROSAMINE, 55-18-5, N-METHYL-N-NITROSOUREA, 684-93-5, N,N'-DIMETHYLHYDRAZINE, 540-73-8, N-BUTYL-N-(4-HYDR, Dose [Inhibitor]: 0, 50 MG/KG BW IN CORN OIL 3/WK FOR 6 WK BEGINNING POST CARCINOGEN TREATMENT (STUDY DURATION: 28 WK), Route [Inhibitor]: GAVAGE, Strain/Sex: F344/MALE, Target Tissue: Type of Lesion: LARGE INTESTINE: ADENOMA, Dose [Carcinogen]: 100 MG/KG BW DEN ONCE, 20 MG/KG BW MNU ONCE ON D 2, 5, 8 AND 11, 40 MG/KG BW DMH ON D 14, 17, 20 AND 23, 0.05% BHBN I, Dose [Carcinogen]: 100 MG/KG BW DEN ONCE, 20 MG/KG BW MNU ONCE ON D 2, 5, 8 AND 11, 40 MG/KG BW DMH ON D 14, 17, 20 AND 23, 0.05% BHBN I, Promoter: NONE USED","6/20 (30%), 1/19 (5%), 83%, p<0.01"
same,"tumour outcome (control, treated, inhibition, significance)","Carcinogen: DIETHYLNITROSAMINE, 55-18-5, N-METHYL-N-NITROSOUREA, 684-93-5, N,N'-DIMETHYLHYDRAZINE, 540-73-8, N-BUTYL-N-(4-HYDR, Carcinogen: DIETHYLNITROSAMINE, 55-18-5, N-METHYL-N-NITROSOUREA, 684-93-5, N,N'-DIMETHYLHYDRAZINE, 540-73-8, N-BUTYL-N-(4-HYDR, Dose [Inhibitor]: 0, 50 MG/KG BW IN CORN OIL 3/WK FOR 6 WK BEGINNING POST CARCINOGEN TREATMENT (STUDY DURATION: 28 WK), Route [Inhibitor]: GAVAGE, Strain/Sex: F344/MALE, Target Tissue: Type of Lesion: LARGE INTESTINE: CARCINOMA, Dose [Carcinogen]: 100 MG/KG BW DEN ONCE, 20 MG/KG BW MNU ONCE ON D 2, 5, 8 AND 11, 40 MG/KG BW DMH ON D 14, 17, 20 AND 23, 0.05% BHBN I, Dose [Carcinogen]: 100 MG/KG BW DEN ONCE, 20 MG/KG BW MNU ONCE ON D 2, 5, 8 AND 11, 40 MG/KG BW DMH ON D 14, 17, 20 AND 23, 0.05% BHBN I, Promoter: NONE USED","8/20 (40%), 3/19 (16%), 60%, not calculated"
same,"tumour outcome (control, treated, inhibition, significance)","Carcinogen: DIETHYLNITROSAMINE, 55-18-5, N-METHYL-NITROSOUREA ;684-93-5, N,N'-DIMETHYLHYDRAZINE, 540-73-8, N-BUTYL-N-(4-HYDROXY, Carcinogen: DIETHYLNITROSAMINE, 55-18-5, N-METHYL-NITROSOUREA ;684-93-5, N,N'-DIMETHYLHYDRAZINE, 540-73-8, N-BUTYL-N-(4-HYDROXY, Dose [Inhibitor]: 0, 50 MG/KG BW IN CORN OIL 3/WK FOR 6 WK BEGINNING POST CARCINOGEN TREATMENT (STUDY DURATION: 28 WK), Route [Inhibitor]: GAVAGE, Strain/Sex: F344/MALE, Target Tissue: Type of Lesion: KIDNEY: NEPHROBLASTOMA, Dose [Carcinogen]: 100 MG/KG BW DEN ONCE, 20 MG/KG BW MNU ONCE ON D 2, 5, 8 AND 11, 40 MG/KG BW DMH ON D 14, 17, 20 AND 23, 0.05% BHBN I, Dose [Carcinogen]: 100 MG/KG BW DEN ONCE, 20 MG/KG BW MNU ONCE ON D 2, 5, 8 AND 11, 40 MG/KG BW DMH ON D 14, 17, 20 AND 23, 0.05% BHBN I, Promoter: NONE USED","5/20 (25%), 0/19 (0%), 100%, p<0.05"
same,"tumour outcome (control, treated, inhibition, significance)","Carcinogen: DIETHYLNITROSAMINE, 55-18-5, N-METHYL-NITROSOUREA, 684-93-5, N,N'-DIMETHYLHYDRAZINE, 540-73-8, N-BUTYL-N-(4-HYDROX, Carcinogen: DIETHYLNITROSAMINE, 55-18-5, N-METHYL-NITROSOUREA, 684-93-5, N,N'-DIMETHYLHYDRAZINE, 540-73-8, N-BUTYL-N-(4-HYDROX, Dose [Inhibitor]: 0, 50 MG/KG BW IN CORN OIL 3/WK FOR 6 WK BEGINNING POST CARCINOGEN TREATMENT (STUDY DURATION: 28 WK), Route [Inhibitor]: GAVAGE, Strain/Sex: F344/MALE, Target Tissue: Type of Lesion: KIDNEY: RENAL CELL CARCINOMA, Dose [Carcinogen]: 100 MG/KG BW DEN ONCE, 20 MG/KG BW MNU ONCE ON D 2, 5, 8 AND 11, 40 MG/KG BW DMH ON D 14, 17, 20 AND 23, 0.05% BHBN I, Dose [Carcinogen]: 100 MG/KG BW DEN ONCE, 20 MG/KG BW MNU ONCE ON D 2, 5, 8 AND 11, 40 MG/KG BW DMH ON D 14, 17, 20 AND 23, 0.05% BHBN I, Promoter: NONE USED","1/20 (5%), 0/19 (0%), 100%, not calculated"
same,"tumour outcome (control, treated, inhibition, significance)","Carcinogen: N-METHYL-N-NITROSOUREA, 684-93-5, Dose [Inhibitor]: 0, 57 UMOL/KG DIET FOR 25 WK BEGINNING 2 WK PRIOR TO CARCINOGEN DOSE (STUDY DURATION: 25 WK), Route [Inhibitor]: ORAL, Strain/Sex: SPRAGUE-DAWLEY/FEMALE, Target Tissue: Type of Lesion: MAMMARY GLAND: TUMOR, Dose [Carcinogen]: 15 MG/KG BW ONCE, Promoter: NONE USED","81%, 38%, 53%, p<0.05"
same,outcome,"Carcinogen: N-methyl-N-nitrosourea (684-93-5), Dose [Inhibitor]: 0, 150 mg/kg bw by gavage 2 x a wk for 16 wks of hormones and MNU, study duration 16 wks, Dose [Inhibitor]: 0, 150 mg/kg bw by gavage 2 x a wk for 16 wks of hormones and MNU, study duration 16 wks, Route [Inhibitor]: Oral, Species: Rat, Strain/Sex: Sprague-Dawley/Male, Target Tissue: Type of Lesion: Prostate: Prostatic intraepithelial neoplasia, Dose [Carcinogen]: 150 mg/kg bw once, Promoter: Cyproterone acetate (427-51-0) and testosterone propionate (57-85-2)",dorsolateral prostate: 40% (hormones + mnu); 10% (hormones + mnu + diallyl sulfi
